Results reported in patent US20060264419A1 (priority 2003, published 2006).

How the values were obtained:
[1] = target: 5-HT2A receptors (Rattus norvegicus, UniProt P14842); experiment: in-vitro affinity to 5-HT2A receptors, displacement of [3H]ketanserine (Example A1); assay type: binding; details: read-out: HT2A IC50
Excerpt: The 5-HT2A receptors are exposed both to [^3H]ketanserine (a substance which is known for its affinity to the receptor) and also to the test compound. The decrease in the affinity of [^3H]ketanserine to the receptor is an indication of the affinity of the test substance to the 5-HT2A receptor.

[2] = target: T1, 5 HT2C receptor (Homo sapiens, UniProt P28335); experiment: affinity to the 5 HT2C receptor; assay type: binding
T1 sequence (P28335 33-458): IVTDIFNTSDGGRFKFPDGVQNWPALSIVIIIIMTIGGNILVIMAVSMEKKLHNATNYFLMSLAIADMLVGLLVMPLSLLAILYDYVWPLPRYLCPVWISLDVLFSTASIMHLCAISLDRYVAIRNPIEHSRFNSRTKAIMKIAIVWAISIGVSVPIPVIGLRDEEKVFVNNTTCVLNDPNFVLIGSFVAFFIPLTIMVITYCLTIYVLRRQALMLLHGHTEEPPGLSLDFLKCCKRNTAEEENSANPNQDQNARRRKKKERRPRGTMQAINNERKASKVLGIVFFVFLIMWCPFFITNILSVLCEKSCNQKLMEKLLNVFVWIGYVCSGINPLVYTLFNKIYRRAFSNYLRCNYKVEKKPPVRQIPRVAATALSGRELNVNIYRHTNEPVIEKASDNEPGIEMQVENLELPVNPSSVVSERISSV

Chain of 5-HT2A receptors (P14842 whole entry): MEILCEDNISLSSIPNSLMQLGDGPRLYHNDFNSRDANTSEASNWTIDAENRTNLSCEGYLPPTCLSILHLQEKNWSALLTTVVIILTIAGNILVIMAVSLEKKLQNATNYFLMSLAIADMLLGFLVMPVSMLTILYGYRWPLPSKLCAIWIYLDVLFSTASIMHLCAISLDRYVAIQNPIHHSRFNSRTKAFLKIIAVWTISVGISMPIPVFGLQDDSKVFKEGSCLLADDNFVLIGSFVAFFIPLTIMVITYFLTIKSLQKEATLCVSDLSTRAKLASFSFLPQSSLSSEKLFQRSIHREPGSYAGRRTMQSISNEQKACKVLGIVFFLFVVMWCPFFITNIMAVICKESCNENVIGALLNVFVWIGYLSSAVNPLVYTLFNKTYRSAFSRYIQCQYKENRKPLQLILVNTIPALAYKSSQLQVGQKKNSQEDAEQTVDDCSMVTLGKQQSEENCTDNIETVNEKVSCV

SMILES | IC50 [1] | IC50 [2]
Fc1ccccc1-c1c(CN2CCCC2)cnn1-c1ccc(-c2ccccc2)cc1 [Example 934, 1-Biphenyl-4-yl-5-(2-fluorophenyl)-4-pyrrolidin-1-ylmethyl-1H-pyrazole] | 32 nM | 1000 nM
COCCCNCc1cnn(-c2ccc(-c3ccccc3)cc2)c1-c1ccccc1F [Example 935, [1-Biphenyl-4-yl-5-(2-fluorophenyl)-1H-pyrazol-4-ylmethyl]-(3-methoxypropyl)amine] | 34 nM | 1000 nM
CN(C)Cc1cnn(-c2ccc(C(F)(F)F)cn2)c1-c1ccccc1F [Example 937, [5-(2-Fluorophenyl)-1-(5-trifluoro-methylpyridin-2-yl)-1H-pyrazol-4-ylmethyl]dimethylamine] | 35 nM | 1000 nM
CN1CCN(Cc2cnn(-c3ccc(C(F)(F)F)cn3)c2-c2ccccc2F)CC1 [Example 941, 1-[5-(2-Fluorophenyl)-1-(5-trifluoro-methylpyridin-2-yl)-1H-pyrazol-4-ylmethyl]-4-methyl-piperazine] | 39 nM | 1000 nM
Cn1ccnc1CNCc1cnn(-c2ccc(-c3ccccc3)cc2)c1-c1ccccc1 [Example 942, (1-Biphenyl-4-yl-5-phenyl-1H-pyrazol-4-yl-methyl)-(1-methyl-1H-imidazol-2-ylmethyl)-amine] | 39 nM | 1000 nM
CC(C)N1CCN(Cc2cnn(-c3ccc(-c4ccc(F)cc4)cc3)c2-c2cccc(Cl)c2)CC1 [Example 943, 1-[5-(3-Chlorophenyl)-1-(4′-fluorobiphenyl-4-yl)-1H-pyrazol-4-ylmethyl]-4-isopropylpiperazine] | 41 nM | 1000 nM
Fc1ccccc1-c1c(CN2CCNCC2)cnn1-c1ccc(C(F)(F)F)cc1 [Example 944, 1-[5-(2-Fluorophenyl)-1-(4-trifluoro-methyl-phenyl)-1H-pyrazol-4-ylmethyl]piperazine] | 43 nM | 790 nM
O=S1(=O)CCN(Cc2cnn(-c3ccc(-c4ccccc4)cc3)c2-c2ccccc2F)CC1 [Example 945, 4-[1-Biphenyl-4-yl-5-(2-fluorophenyl)-1H-pyrazol-4-ylmethyl]thiomorpholine 1,1-dioxide] | 43 nM | 1000 nM
CN(C)CCN(C)Cc1cnn(-c2ccc(-c3ccc(F)cc3)cc2)c1-c1ccccc1Cl [Example 946, N-[5-(2-chlorophenyl)-1-(4′-fluoro-biphenyl-4-yl)-1H-pyrazol-4-ylmethyl]-N,N′,N′-trimethyl-ethane-1,2-diamine] | 44 nM | 490 nM
CCN1CCCC1CNCc1cnn(-c2ccc(-c3ccccc3)cc2)c1-c1ccccc1F (stereo not shown) [Example 947, [1-Biphenyl-4-yl-5-(2-fluorophenyl)-1H-pyrazol-4-ylmethyl]-(1-ethyl-pyrrolidin-2-yl-methyl)amine] | 46.9 nM | 1000 nM
CN1CCN(Cc2cnn(-c3ccc(-c4ccccc4)cc3)c2-c2ccccn2)CC1 [Example 949, 1-(1-Biphenyl-4-yl-5-pyridin-2-yl-1H-pyrazol-4-ylmethyl)-4-methylpiperazine] | 50 nM | 1000 nM
CCN(CC)Cc1cnn(-c2ccc(-c3ccc(F)cc3)cc2)c1-c1ccccc1Cl [Example 951, [5-(2-Chlorophenyl)-1-(4′-fluoro-biphenyl-4-yl)-1H-pyrazol-4-ylmethyl]diethylamine] | 53 nM | 1000 nM
CN1CCN(Cc2cnn(-c3ccc(-c4ccc(C#N)cc4)cc3)c2-c2ccccc2F)CC1 [Example 952, 4′-[5-(2-Fluorophenyl)-4-(4-methyl-piperazin-1-ylmethyl)pyrazol-1-yl]biphenyl-4-carbonitrile] | 53 nM | 790 nM
CN1CCN(Cc2cnn(-c3ccc(-c4cc(F)ccc4F)cc3)c2-c2ccccc2F)CC1 [Example 953, 1-[1-(2′,5′-Difluorobiphenyl-4-yl)-5-(2-fluoro-phenyl)-1H-pyrazol-4-ylmethyl]-4-methyl-piperazine] | 55 nM | 470 nM
CC(C)c1ccc(-c2ccc(-n3ncc(CN4CCN(C)CC4)c3-c3ccccc3F)cc2)cc1 [Example 958, 1-[5-(2-Fluorophenyl)-1-(4′-isopropylbiphenyl-4-yl)-1H-pyrazol-4-ylmethyl]-4-methyl-piperazine] | 58.1 nM | 830 nM
CN1CCN(Cc2cnn(-c3ccc(-c4ccc(F)c(F)c4)cc3)c2-c2ccccc2F)CC1 [Example 960, 1-[1-(3′,4′-Difluorobiphenyl-4-yl)-5-(2-fluoro-phenyl)-1H-pyrazol-4-ylmethyl]-4-methyl-piperazine] | 60 nM | 340 nM

SMILES | IC50 [1] | IC50 [2]
O=C1CCCN1CCCNCc1cnn(-c2ccc(-c3ccccc3)cc2)c1-c1ccccc1F [Example 961, 1-(3-{[1-Biphenyl-4-yl-5-(2-fluoro-phenyl)-1H-pyrazol-4-ylmethyl]amino}propyl)pyrrolidin-2-one] | 64 nM | 1000 nM
Fc1ccccc1-c1c(CN2CCc3ccccc3C2)cnn1-c1ccc(-c2ccccc2)cc1 [Example 964, 2-[1-Biphenyl-4-yl-5-(2-fluoro-phenyl)-1H-pyrazol-4-ylmethyl]-1,2,3,4-tetrahydro-iso-quinoline] | 70 nM | 1000 nM
CN1CCN(Cc2cnn(-c3ccc(-c4ccc(F)cc4)cc3)c2-c2ccccc2Cl)CC1 [Example 965, 1-[5-(2-Chlorophenyl)-1-(4′-fluoro-biphenyl-4-yl)-1H-pyrazol-4-ylmethyl]-4-methylpiperazine] | 72 nM | 600 nM
Fc1ccccc1-c1c(CNCc2nc3ccccc3[nH]2)cnn1-c1ccc(-c2ccccc2)cc1 [Example 969, (1H-Benzoimidazol-2-ylmethyl)-[1-biphenyl-4-yl-5-(2-fluorophenyl)-1H-pyrazol-4-ylmethyl]-amine] | 76 nM | 1000 nM
CC(C)(C)OC(=O)N1CCN(Cc2cnn(-c3ccc(-c4ccccc4)cc3)c2-c2ccccc2F)CC1 [Example 971, tert-Butyl 4-[1-biphenyl-4-yl-5-(2-fluoro-phenyl)-1H-pyrazol-4-ylmethyl]piperazine-1-carboxylate] | 82 nM | 1000 nM
CCN1CCN(Cc2cnn(-c3ccc(-c4ccc(F)cc4)cc3)c2-c2ccccc2Cl)CC1 [Example 975, 1-[5-(2-Chlorophenyl)-1-(4′-fluoro-biphenyl-4-yl)-1H-pyrazol-4-ylmethyl]-4-ethylpiperazine] | 88 nM | 1000 nM
CN1CCN(Cc2cnn(-c3ccc(-c4ccccc4F)cc3)c2-c2ccccc2F)CC1 [Example 976, 1-[1-(2′-Fluorobiphenyl-4-yl)-5-(2-fluoro-phenyl)-1H-pyrazol-4-ylmethyl]-4-methyl-piperazine] | 93 nM | 371 nM
CN1CC2CC1CN2Cc1cnn(-c2ccc(-c3ccccc3)cc2)c1-c1ccccc1F (stereo not shown) [Example 977, 2-[1-Biphenyl-4-yl-5-(2-fluorophenyl)-1H-pyrazol-4-ylmethyl]-5-methyl-2,5-diazabicyclo-[2.2.1]heptane] | 94 nM | 680 nM
CN1CCN(Cc2cnn(-c3ccc(-c4cc(F)ccc4F)cc3)c2-c2ccccc2)CC1 [Example 981, 1-[1-(2′,5′-Difluorobiphenyl-4-yl)-5-phenyl-1H-pyrazol-4-ylmethyl]-4-methylpiperazine] | 110 nM | 1000 nM
CC(C)c1ccc(-n2ncc(CN3CCN(C)CC3)c2-c2ccccc2F)cc1 [Example 983, 1-[5-(2-Fluorophenyl)-1-(4-isopropylphenyl)-1H-pyrazol-4-ylmethyl]-4-methylpiperazine] | 120 nM | 520 nM
CN1CCN(Cc2cnn(-c3ccc(C(F)(F)F)cc3)c2-c2ccccc2F)CC1 [Example 990, 1-[5-(2-Fluorophenyl)-1-(4-trifluoro-methyl-phenyl)-1H-pyrazol-4-ylmethyl]-4-methyl-piperazine] | 133 nM | 490 nM
CC(C)N1CCN(Cc2cnn(-c3ccc(-c4ccc(F)cc4)cc3)c2-c2ccccc2Cl)CC1 [Example 997, 1-[5-(2-Chlorophenyl)-1-(4′-fluoro-biphenyl-4-yl)-1H-pyrazol-4-ylmethyl]-4-isopropylpiperazine] | 160 nM | 1000 nM
OC1CCN(Cc2cnn(-c3ccc(-c4ccc(F)cc4)cc3)c2-c2ccc(Cl)cc2)C1 (stereo not shown) [Example 1003, 1-[5-(4-Chlorophenyl)-1-(4′-fluoro-biphenyl-4-yl)-1H-pyrazol-4-ylmethyl]pyrrolidin-3-ol] | 170 nM | 1000 nM
CN1CCN(Cc2cnn(-c3ccc(-c4ccccc4F)cc3)c2-c2ccc(F)cc2)CC1 [Example 1013, 1-[1-(2′-Fluorobiphenyl-4-yl)-5-(4-fluoro-phenyl)-1H-pyrazol-4-ylmethyl]-4-methyl-piperazine] | 210 nM | 1000 nM
CCN(CC)Cc1cnn(-c2ccc(-c3ccc(F)cc3)cc2)c1-c1ccc(Cl)cc1 [Example 1016, [5-(4-Chlorophenyl)-1-(4′-fluoro-biphenyl-4-yl)-1H-pyrazol-4-ylmethyl]diethylamine] | 220 nM | 1000 nM
O=C(c1ccc(F)cc1)C1CCN(Cc2cnn(-c3ccc(-c4ccc(F)cc4)cc3)c2-c2ccccc2Cl)CC1 [Example 1019, 1-{1-{5-(2-Chlorophenyl)-1-(4′-fluoro-biphenyl-4-yl)-1H-pyrazol-4-ylmethyl]piperidin-4-yl}-1-(4-fluorophenyl)methanone] | 230 nM | 40 nM
